Results from patent publication US8178535B2, “Substituted sulfonamide compounds having bradykinin 1 receptor activity and use thereof as medicaments” (Gruenenthal GmbH, priority 2008, dated 2012).

How the values were obtained:
[1] = target: T1, human B1R receptor (hB1R) (Homo sapiens, UniProt P46663); assay: FLIPR Ca2+ assay (Fluo-4) on CHO K1 cells stably transfected with the human B1R gene; format: cell-based; details: test substance 10 μM, agonist Lys-Des-Arg9-bradykinin 0.5 nM, % inhibition compared to the maximum achievable inhibition; for inhibition at 10 µM: CHO-K1
T1 construct: host or cells: CHO K1 cells
T1 sequence (P46663 1-353): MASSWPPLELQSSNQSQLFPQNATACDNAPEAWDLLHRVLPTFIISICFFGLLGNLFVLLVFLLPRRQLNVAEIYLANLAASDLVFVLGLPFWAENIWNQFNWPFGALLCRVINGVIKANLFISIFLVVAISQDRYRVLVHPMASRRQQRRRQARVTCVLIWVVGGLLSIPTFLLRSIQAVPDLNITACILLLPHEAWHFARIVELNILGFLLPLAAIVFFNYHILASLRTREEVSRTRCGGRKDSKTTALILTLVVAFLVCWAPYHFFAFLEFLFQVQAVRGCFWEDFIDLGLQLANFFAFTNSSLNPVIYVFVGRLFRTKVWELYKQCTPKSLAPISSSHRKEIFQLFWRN
Protocol: (§1) The agonistic or antagonistic action of compounds can be quantified on the bradykinin 1 receptor (B1R) of humans and rats with ectopically expressing cell lines (CHO K1 cells) and with the aid of a Ca^2+-sensitive dye (Fluo-4) in the fluorescent imaging plate reader (FLIPR). The figure in percent activation refers to the Ca^2+ signal after addition of Lys-Des-Arg^9-bradykinin (0.5 nM) and Des-Arg^9-bradykinin (100 nM). Antagonists result in a suppression of the Ca^2+ inflow after the addition of the agonist. Percent inhibition values are given in comparison to the maximum achievable inhibition. The compounds according to the invention act, for example, on the B1R which is implicated in various disease states. This means that the compounds of the invention are useful as pharmaceutically active substances in medicaments for the treatment and/or inhibition of such disease states.
(§2) The agonistic or antagonistic action of substances can be determined on the bradykinin 1 receptor (B1R) of humans and rats by means of the following assay. According to this assay the Ca^2+ inflow through the channel is quantified by means of a Ca^2+-sensitive dye (Fluo-4 type, Molecular Probes Europe BV, Leiden, Netherlands), in a Fluorescent Imaging Plate Reader (FLIPR, Molecular Devices, Sunnyvale, USA).
(§3) Chinese hamster ovary cells (CHO K1 cells) are used, which are stably transfected with the human B1R gene (hB1R cells, Euroscreen s.a., Gosselies, Belgium), or with the B1R gene of rats (rB1R cells, Axxam, Milan, Italy). For functional investigations these cells are plated out on black 96-well plates with a clear floor (BD Biosciences, Heidelberg, Germany) in a density of 20,000/25,000 cells/well. The cells are incubated overnight with 10 vol. % FBS (foetal bovine serum, Gibco Invitrogen GmbH, Karlsruhe, Germany) at 37° C. and 5% CO2 in a culture medium (hB1R cells: Nutrient Mixture Ham's F12, Gibco Invitrogen GmbH, Karlsruhe, Germany; rB1R cells: D-MEM/F12, Gibco Invitrogen GmbH, Karlsruhe, Germany). The following day the cells are charged for 60 minutes at 37° C. with 2.13 μM Fluo-4 (Molecular Probes Europe BV, Leiden, Netherlands) in HBSS buffer (Hank's buffered saline solution, Gibco Invitrogen GmbH, Karlsruhe, Germany) together with […] (Sigma-Aldrich, Taufkirchen, Germany) and 10 mM HEPES (Sigma-Aldrich, Taufkirchen, Germany).
(§4) The plates are then washed twice with HBSS buffer and HBSS buffer is added which additionally contains 0.1% BSA (bovine serum albumin; Sigma-Aldrich, Taufkirchen, Germany), 5.6 mM glucose and 0.05% gelatin (Merck KGaA, Darmstadt, Germany). After further incubation for 20 minutes at room temperature the plates are used for the Ca^2+ measurement in the FLIPR. The Ca^2+-dependent fluorescence is measured both before and after the addition of substances (λex=488 nm, λem=540 nm). The quantification is carried out by measuring the highest fluorescence intensity (FC, fluorescence counts) over time.
(§5) The FLIPR protocol consists of two substance additions. First, test substances (10 μM) are pipetted onto the cells and the Ca^2+ inflow is compared with the control (hB1R: Lys-Des-Arg9-bradykinin 0.5 nM; rB1R: Des-Arg9-bradykinin 100 nM). This gives the result in percent activation referred to the Ca^2+ signal after addition of Lys-Des-Arg9-bradykinin (0.5 nM), bzw. Des-Arg9-bradykinin (100 nM). After 10 minutes' incubation 0.5 nM Lys-Des-Arg9-bradykinin (hB1R) and 100 nM Des-Arg^9-bradykinin (rB1R) are applied and the inflow of Ca^2+ is likewise determined. Antagonists lead to a suppression of the Ca^2+ inflow. The percent inhibition compared to the maximum achievable inhibition is calculated. The compounds show a good activity on both human and rat receptors.
(§6) The agonistic and antagonistic action of the compounds according to the invention on the bradykinin 1 receptor (B1R) of humans and rats were determined as described above. Antagonists lead to a suppression of the Ca^2+ inflow. […]

[2] = target: T2, B1R receptor of rats (rB1R) (Rattus norvegicus, UniProt P97583); assay: FLIPR Ca2+ assay (Fluo-4) on CHO K1 cells stably transfected with the B1R gene of rats; format: cell-based; details: test substance 10 μM, agonist Des-Arg9-bradykinin 100 nM, % inhibition compared to the maximum achievable inhibition; for inhibition at 10 µM: CHO-K1
T2 construct: host or cells: CHO K1 cells
T2 sequence (P97583 1-337): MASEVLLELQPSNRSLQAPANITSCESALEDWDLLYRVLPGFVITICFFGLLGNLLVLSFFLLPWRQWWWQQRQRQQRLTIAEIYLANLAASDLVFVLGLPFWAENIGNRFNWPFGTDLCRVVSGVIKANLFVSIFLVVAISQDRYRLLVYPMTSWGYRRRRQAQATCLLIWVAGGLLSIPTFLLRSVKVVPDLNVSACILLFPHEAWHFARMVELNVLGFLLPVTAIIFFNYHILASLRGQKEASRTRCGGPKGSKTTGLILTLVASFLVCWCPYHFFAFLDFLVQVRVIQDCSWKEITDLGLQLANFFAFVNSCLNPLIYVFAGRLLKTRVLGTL
Protocol: as §1, §2, §3, §4, §5, §6

Row | SMILES | inhibition at 10 µM [1] | inhibition at 10 µM [2] | hB1R [10 μM] % Inhibition [1] | rB1R [10 μM] % Inhibition [2]
1 | COc1cc(C)c(S(=O)(=O)N2CCCCC2CCC(=O)N2CCn3c(CCc4ccncc4)ccc3C2)c(C)c1 (stereo not shown) [(108), 3-(1-(4-Methoxy-2,6-dimethylphenylsulfonyl)piperidin-2-yl)-1-(6-(2-(pyridin-4-yl)ethyl)-3,4-dihydropyrrolo[1,2-a]pyrazin-2(1H)-yl)propan-1-one] | 92% | 99% | – | –
2 | COc1cc(C)c(S(=O)(=O)N2CCCCC2CCC(=O)N2CCn3c(ccc3-c3ccncc3)C2)c(C)c1 (stereo not shown) [(96), 3-(1-(4-Methoxy-2,6-dimethylphenylsulfonyl)piperidin-2-yl)-1-(6-(pyridin-4-yl)-3,4-dihydropyrrolo[1,2-a]pyrazin-2(1H)-yl)propan-1-one] | 61% | 96% | – | –
3 | COc1cc(C)c(S(=O)(=O)N2CCCCC2COCC(=O)N2CCn3c(CN4CCCCC4)ccc3C2c2ccccc2)c(C)c1 (stereo not shown) [(63), 2-((1-(4-methoxy-2,6-dimethylphenylsulfonyl)piperidin-2-yl)methoxy)-1-(1-phenyl-6-(piperidin-1-ylmethyl)-3,4-dihydropyrrolo[1,2-a]pyrazin-2(1H)-yl)ethanone] | 104% | 103% | – | –
4 | COc1ccc(C2c3cccn3CCN2C(=O)COCC2CCCCN2S(=O)(=O)c2c(C)cc(C)cc2C)cc1 (stereo not shown) [(38), 2-((1-(mesitylsulfonyl)piperidin-2-yl)methoxy)-1-(1-(4-methoxyphenyl)-3,4-dihydropyrrolo[1,2-a]pyrazin-2(1H)-yl)ethanone] | 90% | 99% | – | –
5 | CCC1c2ccc(CN(C)C)n2CCN1C(=O)COCC1CCCCN1S(=O)(=O)c1c(C)cc(OC)cc1C (stereo not shown) [(69), 1-(6-((dimethylamino)methyl)-1-ethyl-3,4-dihydropyrrolo[1,2-a]pyrazin-2(1H)-yl)-2-((1-(4-methoxy-2,6-dimethylphenylsulfonyl)piperidin-2-yl)methoxy)ethanone] | 104% | 102% | – | –
6 | COc1cc(C)c(S(=O)(=O)N2CCCCC2COCC(=O)N2CCn3cccc3C2c2ccc(F)c(F)c2)c(C)c1 (stereo not shown) [(26), 1-(1-(3,4-difluorophenyl)-3,4-dihydropyrrolo[1,2-a]pyrazin-2(1H)-yl)-2-((1-(4-methoxy-2,6-dimethylphenylsulfonyl)piperidin-2-yl)methoxy)ethanone] | 86% | 98% | – | –
7 | Cc1cc(C)c(S(=O)(=O)N2CCCCC2COCC(=O)N2CCn3cccc3C2C)c(C)c1 (stereo not shown) [(34), 2-((1-(mesitylsulfonyl)piperidin-2-yl)methoxy)-1-(1-methyl-3,4-dehydro-pyrrolo[1,2-a]pyrazin-2(1H)-yl)ethanone] | – | – | 76% | 99%

The remaining lines, values ahead:

Row | inhibition at 10 µM [1] | inhibition at 10 µM [2] | hB1R [10 μM] % Inhibition [1] | rB1R [10 μM] % Inhibition [2] | SMILES
8 | 99% | 97% | – | – | COc1cc(C)c(S(=O)(=O)N2CCCCC2COCC(=O)N2CCn3cccc3C2c2ccccc2)c(C)c1 (stereo not shown) [(25), 2-((1-(4-methoxy-2,6-dimethylphenylsulfonyl)piperidin-2-yl)methoxy)-1-(1-phenyl-3,4-dihydropyrrolo[1,2-a]pyrazin-2(1H)-yl)ethanone]
9 | 98% | 100% | – | – | Cc1cc(C)c(S(=O)(=O)N2CCCCC2COCC(=O)N2CCn3cccc3C2C(C)(C)C)c(C)c1 (stereo not shown) [(33), 1-(1-tert-butyl-3,4-dihydropyrrolo[1,2-a]pyrazin-2(1H)-yl)-2-((1-(mesitylsulfonyl)piperidin-2-yl)methoxy)ethanone]
10 | 98% | 102% | – | – | COc1cc(C)c(S(=O)(=O)N2CCCCC2CCCC(=O)N2CCn3cc(CCc4ccncc4)nc3C2)c(C)c1 (stereo not shown) [(118), 4-(1-(4-Methoxy-2,6-dimethylphenylsulfonyl)piperidin-2-yl)-1-(2-(2-(pyridin-4-yl)ethyl)-5,6-dihydroimidazo[1,2-a]pyrazin-7(8H)-yl)butan-1-one]
11 | 102% | 100% | – | – | CCC1c2ccc(CN(C)C)n2CCN1C(=O)COCC1CCCCN1S(=O)(=O)c1c(C)cc(C)cc1C (stereo not shown) [(54), 1-(6-((dimethylamino)methyl)-1-ethyl-3,4-dihydropyrrolo[1,2-a]pyrazin-2(1H)-yl)-2-((1-(mesitylsulfonyl)piperidin-2-yl)methoxy)ethanone]
12 | 100% | 98% | – | – | COc1cc(C)c(S(=O)(=O)N2CCCCC2COCC(=O)N2CCn3c(Cc4cccnc4)ccc3C2)c(C)c1 (stereo not shown) [(111), 2-((1-(4-Methoxy-2,6-dimethylphenylsulfonyl)piperidin-2-yl)methoxy)-1-(6-(pyridin-3-ylmethyl)-3,4-dihydropyrrolo[1,2-a]pyrazin-2(1H)-yl)ethanone]
13 | 90% | 107% | – | – | COc1cc(C)c(S(=O)(=O)N2CCCCC2CCCC(=O)N2CCn3cc(Cc4ccncc4)nc3C2)c(C)c1 (stereo not shown) [(119), 4-(1-(4-Methoxy-2,6-dimethylphenylsulfonyl)piperidin-2-yl)-1-(2-(pyridin-4-ylmethyl)-5,6-dihydroimidazo[1,2-a]pyrazin-7(8H)-yl)butan-1-one]
14 | 99% | 97% | – | – | COc1cc(C)c(S(=O)(=O)N2CCCCC2COCC(=O)N2CCn3c(ccc3-c3ccncc3)C2)c(C)c1 (stereo not shown) [(95), 2-((1-(4-Methoxy-2,6-dimethylphenylsulfonyl)piperidin-2-yl)methoxy)-1-(6-(pyridin-4-yl)-3,4-dihydropyrrolo[1,2-a]pyrazin-2(1H)-yl)ethanone]
15 | 103% | 103% | – | – | Cc1cc(C)c(S(=O)(=O)N2CCCCC2COCC(=O)N2CCn3c(CN4CCOCC4)ccc3C2c2ccccc2)c(C)c1 (stereo not shown) [(49), 2-((1-(mesitylsulfonyl)piperidin-2-yl)methoxy)-1-(6-(morpholinomethyl)-1-phenyl-3,4-dihydropyrrolo[1,2-a]pyrazin-2(1H)-yl)ethanone]
16 | – | 103% | – | – | COc1cc(C)c(S(=O)(=O)N2CCCCC2COCC(=O)N2CCn3c(CN4CCCCC4)nnc3C2)c(C)c1 (stereo not shown) [(87), 2-((1-(4-Methoxy-2,6-dimethylphenylsulfonyl)piperidin-2-yl)methoxy)-1-(3-(piperidin-1-ylmethyl)-5,6-dihydro-[1,2,4]triazolo[4,3-a]pyrazin-7(8H)-yl)ethanone]
